Values quoted from earlier work in paper PMC8969080 (Dalton transactions (Cambridge, England : 2003), 2022).
Where two headings read alike, the source gives them in different places.

Conditions: 1:1 Metal/Ligand, 50 μM

- Calculated pM (−log[M]free; M = Cu^2+) (pH 6.6): 9.7
- Calculated pM (−log[M]free; M = Cu^2+) (pH 7.4): 10.7
Structure (SMILES): O=C(O)CN(CCN(CC(=O)O)CC(=O)O)CCN(CC(=O)O)CC(=O)O [DTPA, diethylenetriaminepentaacetic acid]
